Measurements taken from article PMC10636171 (Cell Death & Disease, 2023).

Columns and labels:
Cyclin D1 = test: Western blot of Cyclin D1; format: cell-based; conditions: 5 nM and 10 nM
Experimental: (§1) Proteins (25–50 ug/lane) were separated on a 4–12% Bis-Tris NuPAGE gel and blotted onto a PVDF membrane (FluoroTrans; VWR). […] Horseradish peroxidase-conjugated secondary antibodies were from Cell Signaling. Proteins were visualized by enhanced chemiluminescence (Millipore) on ChemiDoc camera (Bio-Rad) and protein expression levels were quantified using the lmageJ software. Full anduncropped western blots are presented in Supplemental File.

TRKA = molecular target: T1, TRKA (Homo sapiens, UniProt P04629); test: HTRF kinase assay; format: biochemical
T1 construct: purchased Invitrogen (c-Met, TRKA, TRKB, TRKC)
T1 sequence (P04629 33-796): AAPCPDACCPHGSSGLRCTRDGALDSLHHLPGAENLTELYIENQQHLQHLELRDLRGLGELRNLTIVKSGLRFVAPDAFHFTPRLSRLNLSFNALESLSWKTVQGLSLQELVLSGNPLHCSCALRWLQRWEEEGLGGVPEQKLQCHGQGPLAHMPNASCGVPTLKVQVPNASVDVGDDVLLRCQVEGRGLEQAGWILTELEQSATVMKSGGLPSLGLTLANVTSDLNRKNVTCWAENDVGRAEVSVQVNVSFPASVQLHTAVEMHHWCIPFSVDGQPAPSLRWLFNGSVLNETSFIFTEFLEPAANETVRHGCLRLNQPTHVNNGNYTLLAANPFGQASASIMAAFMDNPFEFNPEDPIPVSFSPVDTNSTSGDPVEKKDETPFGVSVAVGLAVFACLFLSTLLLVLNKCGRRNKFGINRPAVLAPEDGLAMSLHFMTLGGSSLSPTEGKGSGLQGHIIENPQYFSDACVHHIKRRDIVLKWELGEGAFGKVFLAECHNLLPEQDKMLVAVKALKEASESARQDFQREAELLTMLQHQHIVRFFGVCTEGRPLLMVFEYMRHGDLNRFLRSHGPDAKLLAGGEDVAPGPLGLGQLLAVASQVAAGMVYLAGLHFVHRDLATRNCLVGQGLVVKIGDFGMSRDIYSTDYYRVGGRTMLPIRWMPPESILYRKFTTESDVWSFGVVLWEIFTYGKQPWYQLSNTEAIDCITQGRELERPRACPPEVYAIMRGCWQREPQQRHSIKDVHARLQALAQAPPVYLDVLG
Experimental: (§2) HTRF kinase assay to test the activity of compound 1D228 on c-Met and NTRK kinases: c-Met, TRKA, TRKB and TRKC as well as the Zˊ-Lyte kinase Kit were purchased from Invitrogen. The experiments were performed according to the instructions of the manufacturer. Concentrations consisting of 2 or 10 levels from 0.001 to 1 mM were used for 1D228. Plate was measured on multifunction microplate reader (Molecular Devices, Flex Station 3). Curve fitting and data presentations were performed using Graph Pad Prism version 5.0. Every experiment was repeated at least 3 times.

TRKC = molecular target: T2, TRKC (Homo sapiens, UniProt Q16288); test: HTRF kinase assay; format: biochemical
T2 construct: purchased Invitrogen (c-Met, TRKA, TRKB, TRKC)
T2 sequence (Q16288 32-839): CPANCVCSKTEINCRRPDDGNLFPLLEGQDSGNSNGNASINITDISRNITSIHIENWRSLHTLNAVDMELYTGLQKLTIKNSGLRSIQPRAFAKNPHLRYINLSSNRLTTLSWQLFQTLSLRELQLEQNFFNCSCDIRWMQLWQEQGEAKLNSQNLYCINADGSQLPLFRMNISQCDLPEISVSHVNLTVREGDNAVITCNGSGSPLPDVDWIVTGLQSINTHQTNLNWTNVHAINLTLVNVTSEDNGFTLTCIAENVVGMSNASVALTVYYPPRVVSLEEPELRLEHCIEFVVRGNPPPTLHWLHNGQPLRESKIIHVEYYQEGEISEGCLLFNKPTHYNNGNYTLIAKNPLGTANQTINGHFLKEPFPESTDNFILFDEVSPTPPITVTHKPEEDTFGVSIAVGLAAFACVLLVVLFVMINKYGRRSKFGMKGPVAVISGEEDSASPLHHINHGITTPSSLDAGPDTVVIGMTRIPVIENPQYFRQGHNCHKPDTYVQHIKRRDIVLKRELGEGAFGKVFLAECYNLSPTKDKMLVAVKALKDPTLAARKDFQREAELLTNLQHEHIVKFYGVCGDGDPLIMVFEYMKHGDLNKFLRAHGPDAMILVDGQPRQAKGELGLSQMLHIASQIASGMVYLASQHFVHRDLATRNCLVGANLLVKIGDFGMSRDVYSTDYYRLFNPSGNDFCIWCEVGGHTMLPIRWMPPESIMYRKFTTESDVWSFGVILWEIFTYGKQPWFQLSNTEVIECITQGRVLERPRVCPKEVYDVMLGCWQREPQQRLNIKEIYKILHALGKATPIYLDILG
Experimental: as §2

c-Met kinase = molecular target: T3, c-Met kinase (Homo sapiens, UniProt P08581); test: HTRF kinase assay; format: biochemical
T3 construct: purchased Invitrogen
T3 sequence (P08581 25-1390): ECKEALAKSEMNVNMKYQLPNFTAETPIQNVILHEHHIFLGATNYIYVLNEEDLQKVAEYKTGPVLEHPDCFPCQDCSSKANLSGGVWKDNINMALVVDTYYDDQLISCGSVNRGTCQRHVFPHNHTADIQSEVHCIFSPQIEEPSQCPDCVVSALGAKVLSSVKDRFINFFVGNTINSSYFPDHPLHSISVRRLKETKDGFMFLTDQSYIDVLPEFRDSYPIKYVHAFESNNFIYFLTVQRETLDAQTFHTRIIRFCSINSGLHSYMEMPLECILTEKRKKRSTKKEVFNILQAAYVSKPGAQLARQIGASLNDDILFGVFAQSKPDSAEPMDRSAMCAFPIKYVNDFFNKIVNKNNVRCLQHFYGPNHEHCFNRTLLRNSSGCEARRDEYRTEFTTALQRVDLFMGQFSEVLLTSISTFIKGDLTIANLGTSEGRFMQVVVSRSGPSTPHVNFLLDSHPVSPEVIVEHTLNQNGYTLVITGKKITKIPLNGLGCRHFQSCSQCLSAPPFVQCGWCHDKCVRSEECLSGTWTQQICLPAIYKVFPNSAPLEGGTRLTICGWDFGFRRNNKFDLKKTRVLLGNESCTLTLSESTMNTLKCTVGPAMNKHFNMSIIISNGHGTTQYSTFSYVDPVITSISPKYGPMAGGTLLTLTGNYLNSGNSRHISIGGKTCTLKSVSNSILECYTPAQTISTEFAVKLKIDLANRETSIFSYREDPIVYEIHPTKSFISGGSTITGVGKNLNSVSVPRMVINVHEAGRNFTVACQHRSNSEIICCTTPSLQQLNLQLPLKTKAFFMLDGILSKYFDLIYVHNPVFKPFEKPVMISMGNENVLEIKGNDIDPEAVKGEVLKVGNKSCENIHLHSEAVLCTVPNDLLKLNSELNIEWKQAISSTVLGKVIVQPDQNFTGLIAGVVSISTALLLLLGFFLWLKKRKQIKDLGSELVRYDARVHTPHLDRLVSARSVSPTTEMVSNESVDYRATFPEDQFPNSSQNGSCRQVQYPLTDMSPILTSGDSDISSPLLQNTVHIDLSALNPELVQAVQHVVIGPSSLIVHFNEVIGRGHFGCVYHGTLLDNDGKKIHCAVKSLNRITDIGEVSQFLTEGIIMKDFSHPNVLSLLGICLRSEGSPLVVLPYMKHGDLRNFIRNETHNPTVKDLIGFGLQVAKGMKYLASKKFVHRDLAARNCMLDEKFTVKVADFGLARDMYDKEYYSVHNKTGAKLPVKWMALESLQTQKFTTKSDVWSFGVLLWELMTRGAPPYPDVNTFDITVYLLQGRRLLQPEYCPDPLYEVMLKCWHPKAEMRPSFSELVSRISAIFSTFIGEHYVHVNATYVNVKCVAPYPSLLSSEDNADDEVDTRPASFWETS
Experimental: as §2

TRKB = molecular target: T4, TRKB (Homo sapiens, UniProt Q16620); test: HTRF kinase assay; format: biochemical
T4 construct: purchased Invitrogen
T4 sequence (Q16620 32-822): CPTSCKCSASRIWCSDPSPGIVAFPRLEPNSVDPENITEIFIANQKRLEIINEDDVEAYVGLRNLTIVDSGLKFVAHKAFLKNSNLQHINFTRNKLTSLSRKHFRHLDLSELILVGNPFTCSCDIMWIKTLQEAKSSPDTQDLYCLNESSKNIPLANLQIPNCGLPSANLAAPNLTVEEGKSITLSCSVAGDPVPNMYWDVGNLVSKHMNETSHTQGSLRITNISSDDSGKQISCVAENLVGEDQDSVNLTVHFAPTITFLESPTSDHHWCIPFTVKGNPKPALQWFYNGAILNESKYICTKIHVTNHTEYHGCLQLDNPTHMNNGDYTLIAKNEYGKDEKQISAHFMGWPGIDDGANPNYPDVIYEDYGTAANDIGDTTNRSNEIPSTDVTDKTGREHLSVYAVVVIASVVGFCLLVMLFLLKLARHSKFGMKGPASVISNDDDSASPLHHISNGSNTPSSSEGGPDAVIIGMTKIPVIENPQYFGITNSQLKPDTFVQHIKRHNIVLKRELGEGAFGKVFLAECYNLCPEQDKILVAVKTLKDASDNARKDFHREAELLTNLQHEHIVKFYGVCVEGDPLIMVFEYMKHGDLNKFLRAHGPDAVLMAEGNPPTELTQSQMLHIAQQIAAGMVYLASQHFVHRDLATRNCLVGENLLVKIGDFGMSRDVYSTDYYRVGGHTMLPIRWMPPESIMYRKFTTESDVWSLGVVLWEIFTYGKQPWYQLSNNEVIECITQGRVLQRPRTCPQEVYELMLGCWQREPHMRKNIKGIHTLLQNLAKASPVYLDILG
Experimental: as §2

MKN45 xenograft tumor = MKN45 xenograft tumor model; format: in vivo, BALB/c nude mice; conditions: ig
Experimental: Male BALB/c nude mice (5-week old, 18–20 g) were purchased from Beijing Vital River Laboratory Animal Technology (Beijing Vital River LaboratoryAnimal Technology Co., Ltd., Beijing,China) and allowed to acclimate for 1 week, maintained at constant room temperature and fed a standard rodent chow and water. 1 × 10^7 cells/mL cancer cells grown in logarithmic phase were harvested and resuspended in FBS-free 1640 medium. Then, 100 μL of the cell suspension was subcutaneously injected into the right flank of each mouse. When the tumour volume was reached about 600–800 mm^3, it was removed, minced into small pieces of equal volume (2 × 2 × 2 mm^3), and transplanted subcutaneously into the nude mice. When the tumour volume was reached about 200–400 mm^3, the xenograft tumour-bearing nude mice were randomly allocated to five groups (vehicle-treated, 1D228-2mgd-treated, 1D228-4mgd-treated […] Tepotinib-treated groups, with 6 or 8 mice (The number of mice were determined according to previous experience on xenograft tumor models) per group. Each group was dosed by intragastric administration (ig) for 7–14 days. Tumour volume and body weights were recorded every day after drug treatment. At the end of the observation period, the animals were euthanized by cervical dislocation and the tumour bulks were peeled off conformed to the Guide for the Care and Use of Laboratory Animals as published by the US National Institutes of Health (NIH Publication No. 85-23, revised 1996) and approved by the Institutional Ethics Review Board of Binzhou Medical University. There was no blinding was done during the animal experiment. No animals were excluded from the analysis.

[1] = Liver microsomal stability assay; format: in vitro ADME; conditions: liver microsomes, pH 7.4
Experimental: The incubation system (including 0.1 M PH 7.4 phosphate buffer, NADPH generation system, UGT incubation system, 0.5 mg/mL liver microsomal protein and appropriate concentration of drug to be tested) was incubated in a water bath at 37 °C for […]. Each sample was incubated three times in parallel, and an equal volume of pre-chilled acetonitrile was added at preset reaction time points, such as 0, 5, 10, 15, 30 and 60 min. The reaction was terminated by the addition of acetonitrile. The remaining content of the prototype drug in the warm incubation solution was determined by HPLC, HPLC-MC and HPLC-MC/MC.

[2] = test system: phosphorylated c-Met in MKN45 cells; test: Western blot of phosphorylated c-Met; format: cell-based, human; conditions: MKN45, concentration as low as 1 nM
Experimental: as §1

[3] = test system: phosphorylated c-Met in MHCC97H cells; test: Western blot of phosphorylated c-Met; format: cell-based, human; conditions: concentration as low as 1 nM
Experimental: as §1

[4] = Hematoxylin and eosin histology of major tissues; format: in vivo; conditions: following various treatments
Experimental: Female and male Kunming mice (36 mice each, 18 ~ 25 g) were purchased and housed at the SPF (Beijing) Biotechnology Co. in pathogen-free condition, maintained at constant room temperature and fed a standard rodent chow and water. The mice were randomly divided into experimental group and control group. […]. The heart, liver, lung and kidney of mice in the 750 mg/kg dose group were taken and fixed for HE staining.

In the case of [2H][C@@](C)(c1cccc(-c2ncc(OCC3CCN(C)CC3)cn2)c1)n1nc(-c2cccc(C#N)c2)ccc1=O [1D228], the “Cyclin D1 expression” value (Cyclin D1) is reported as “substantially inhibited”, the IC50 (TRKA) is reported as 111 nM and the IC50 (TRKC) is reported as 25.5 nM. It also gave an IC50 (c-Met kinase) of 0.98 nM, an IC50 (TRKB) of 23.7 nM and a TGI (MKN45 xenograft tumor; 2 mg/kg/d) of 74.4%. The TGI (MKN45 xenograft tumor; 4 mg/kg/d) was 90.7%, the TGI (MKN45 xenograft tumor; 8 mg/kg/d) was 94.8% and the half-life ([1]; cynomolgus monkey, Macaca fascicularis liver microsome) was 27.6 h. For the same compound, the half-life ([1]; mouse, CD - 1 mice liver microsome) was 1.7 h, the “Phosphorylated c-Met level” value [2] was “significant reduction” and the “Phosphorylated c-Met level” value [3] was “significant reduction”. For the same compound, the “Toxicity in H&E-stained heart, liver, lung and kidney” value [4] was “no evidence of toxicity”.
